From PMC5352556 (Journal of chemical neuroanatomy, 2016)
Structures can show the parent of a compound that is named as a salt.

Key:
Assay type in all cases: cell-based
[1] = system: rat Pmat (rPmat); assay: Concentration dependence of rPmat-mediated substrate uptake in MDCK/rPmat cells; settings: rPmat-mediated uptake, MDCK/rPmat minus mock, 3 min, 37 °C, pH 7.4
[2] = target: T1, human PMAT (hPMAT) (Homo sapiens, UniProt Q7RTT9); assay: Concentration dependence of hPMAT-mediated substrate uptake in MDCK/hPMAT cells; settings: hPMAT-mediated uptake, MDCK/hPMAT minus mock, 3 min, 37 °C, pH 7.4
T1 sequence (Q7RTT9 1-530): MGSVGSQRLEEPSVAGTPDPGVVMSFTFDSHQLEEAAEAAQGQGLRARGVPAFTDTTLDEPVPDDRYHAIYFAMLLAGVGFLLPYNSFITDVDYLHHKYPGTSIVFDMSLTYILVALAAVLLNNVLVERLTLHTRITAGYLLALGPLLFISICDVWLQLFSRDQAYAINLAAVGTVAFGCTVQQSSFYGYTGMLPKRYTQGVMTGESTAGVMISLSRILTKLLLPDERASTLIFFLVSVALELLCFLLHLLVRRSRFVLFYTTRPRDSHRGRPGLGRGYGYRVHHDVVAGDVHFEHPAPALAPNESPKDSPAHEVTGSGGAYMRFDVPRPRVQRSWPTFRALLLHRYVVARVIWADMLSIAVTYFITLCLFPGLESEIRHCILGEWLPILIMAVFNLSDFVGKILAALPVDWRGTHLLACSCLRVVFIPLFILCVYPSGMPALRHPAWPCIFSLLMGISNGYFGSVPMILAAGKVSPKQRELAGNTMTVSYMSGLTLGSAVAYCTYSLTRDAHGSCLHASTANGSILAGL

[3] = target: T2, mouse Pmat (mPmat) (Mus musculus, UniProt Q8R139); settings: mPmat-mediated uptake, Flp293/mPmat minus mock, 2 min, 37 °C, pH 7.4
T2 sequence (Q8R139 1-528): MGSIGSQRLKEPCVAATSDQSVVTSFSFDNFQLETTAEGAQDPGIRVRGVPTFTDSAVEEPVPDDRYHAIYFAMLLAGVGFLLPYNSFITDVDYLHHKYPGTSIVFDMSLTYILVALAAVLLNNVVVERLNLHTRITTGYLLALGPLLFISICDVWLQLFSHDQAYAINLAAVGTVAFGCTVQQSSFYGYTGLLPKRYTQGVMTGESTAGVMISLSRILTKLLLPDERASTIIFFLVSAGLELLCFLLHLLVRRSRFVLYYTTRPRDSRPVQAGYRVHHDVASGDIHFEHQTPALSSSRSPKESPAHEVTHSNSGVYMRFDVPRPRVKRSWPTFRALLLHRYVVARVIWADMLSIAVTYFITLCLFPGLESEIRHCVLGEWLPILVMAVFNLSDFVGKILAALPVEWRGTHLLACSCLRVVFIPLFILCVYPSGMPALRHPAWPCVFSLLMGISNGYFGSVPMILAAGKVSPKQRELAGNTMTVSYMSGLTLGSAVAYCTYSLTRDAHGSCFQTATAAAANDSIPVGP

Row | SMILES | Km [1] [µM] | Vmax [1] [nmol/min/mg protein] | Km [2] [µM] | Vmax ([1]; listed as dopamine) [nmol/min/mg protein] | Vmax [2] [nmol/min/mg protein] | Km [3] [µM] | Vmax [3] [nmol/min/mg protein]
1 | NCCc1c[nH]c2ccc(O)cc12 [Serotonin, 5-hydroxy-[1,2-^3H]tryptamine creatinine sulfate] | 82.9 ± 21.2 | 1.26 ± 0.12 | 116 ± 27 | – | – | – | –
2 | [3H]c1c([3H])c(CCN)c([3H])c(O)c1O [Dopamine, 3,4-dihydroxy-[2,5,6-^3H]phenylethylamine] | 271 ± 50 | 0.750 ± 0.049 | 201 ± 34 | 0.750 ± 0.049 | 1.43 ± 0.08 | – | –
3 | C[n+]1ccc(-c2ccccc2)cc1 [MPP^+, 1-methyl-4-phenylpyridinium] | 70.2 ± 12.3 | 0.210 ± 0.011 | 33.7 ± 6 | – | 0.490 ± 0.190 | 49.5 ± 0.1 | 1.59 ± 0.068
